# Columns and labels:
# [1] = target: T1, hP2X3 (Homo sapiens, UniProt P56373); test: FLIPR intracellular calcium assay, hP2X3; assay type: cell-based; details: human P2X3-HEK cells, agonist at EC75
# T1 construct: host or cells: HEK (hP2X3-HEK)
# T1 sequence (P56373 1-397): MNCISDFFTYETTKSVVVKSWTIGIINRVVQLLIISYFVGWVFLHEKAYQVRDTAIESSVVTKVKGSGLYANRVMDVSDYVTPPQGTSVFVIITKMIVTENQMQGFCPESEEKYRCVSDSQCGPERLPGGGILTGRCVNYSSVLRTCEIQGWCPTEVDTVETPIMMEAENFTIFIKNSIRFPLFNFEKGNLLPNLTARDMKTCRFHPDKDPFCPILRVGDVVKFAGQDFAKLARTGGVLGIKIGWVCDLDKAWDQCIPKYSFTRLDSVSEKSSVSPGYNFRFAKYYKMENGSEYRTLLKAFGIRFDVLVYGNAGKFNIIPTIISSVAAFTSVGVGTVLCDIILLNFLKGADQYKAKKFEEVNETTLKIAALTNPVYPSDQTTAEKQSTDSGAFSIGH
# From the text: (§1) The FLIPR® assay utilizes cells which express human or rat P2X3 or P2X2/3 receptors. Recombinant cells expressing hP2X3 (Cat #6188) and hP2X2/3 (Cat #6179) were procured from Chantest Corp. Rat P2X2 (NCBI Accession No: U14414) was amplified by PCR from PC12 cDNA (a rat adrenal medulla cell line). The PCR product obtained containing the protein coding sequence of rat P2X2 was cloned into EcoRV-digested and dephosphorylated vector plRES-puro3 within the multiple cloning site (MCS). See, FIG. 1A.
# (§2) (i) Intracellular Calcium Assay Protocol for Screening Compounds
# (§3) Cryo-vial containing 6×10^6 cells (human P2X3-HEK/human P2X2/3-TRex293/rat P2X2/3-TRex293/rat P2X3 TRex-CHO) was thawed in a 37° C. water bath. Cells were suspended in 20 mL of respective cell plating media (See annexure for composition) in a 50 mL centrifuge tube. The cell viability was checked with the help of Trypan Blue dye. Upon washing, cells were plated in a black 384-well clear bottomed, sterile poly-D-lysine coated plate such that, each well contained 10,000 cells (15,000/well for hP2X3) in 30 μL cell plating media. The plate was incubated in a 5% CO2 incubator at 37° C. for 24 h.
# (§4) The next day, prior to the assay, the cell plating media was removed from each well by decanting and gentle tapping. Thirty μL of FLIPR Calcium 4 dye solution was added to each well. The plate was incubated at 37° C. for 45 min (60 min for hP2X3). The plate was next equilibrated at room temperature for 15 minutes before placing it in a 384 well FLIPR for the assay.
# (§5) Compounds were dissolved in DMSO and serially diluted following 11 point half log (3.16 fold) dilution with a starting concentration of 2 mM. Dilutions were mixed with assay buffer just before performing the assay.
# (§6) Compounds were added to the respective wells of the assay-ready cell plate with the help of the FLIPR and fluorescence readings were captured for 5 min to observe any possible agonistic property of the compounds. The plate was then incubated at room temperature for 15 min. The cells were stimulated with respective agonist EC75 concentration and the fluorescence readings were captured for another 5 min by FLIPR. The difference in fluorescence readings in presence of the compounds were compared with that of the control wells (wells having no compound) to calculate the inhibitory potency of the compounds. The IC50 values of the compounds were determined using the Graph pad Prism software.
# (§7) (ii) Cell Plating Media for hP2X3-HEK and hP2X2/3-TRex293 Cells • DMEM/F12 (1:1) HAM media (Invitrogen; Cat #11039) • 1×NEAA (Invitrogen; Cat #11140) • 25 mM HEPES (Invitrogen; Cat #15630) • 1 mM sodium pyruvate (Invitrogen; Cat #11360) • 10% tetracycline negative FBS (PAA; Cat #A15-209) • 1 μg/mL doxycycline (Clontech; Cat #63131) [for hP2X2/3-TRex293 cells only]
# (§8) (v) Assay Buffer Composition • HBSS (Invitrogen Cat #14025) • 20 mM HEPES (Invitrogen Cat #15630) • 0.01% F127 (Sigma Cat #P2443) • 1.8 mM CaCl2 (Sigma Cat #C5080) • pH adjusted to 7.4
# (§9) (vi) Dye Solution Composition • 1× FLIPR Calcium 4 dye in assay buffer (Molecular devices Cat #R8141) • 1.8 mM Probenecid (Sigma Cat #P8761) • pH adjusted to 7.4
# [2] = target: T2, hP2X2/3 (Homo sapiens, UniProt P56373+Q9UBL9); test: FLIPR intracellular calcium assay, hP2X2/3; assay type: cell-based; details: human P2X2/3-TRex293 cells, agonist at EC75
# T2 construct: host or cells: TRex293 (hP2X2/3-TRex293), doxycycline-induced
# T2 sequence (P56373 1-397): T1 sequence (P56373 1-397)
# T2 sequence (Q9UBL9 1-471): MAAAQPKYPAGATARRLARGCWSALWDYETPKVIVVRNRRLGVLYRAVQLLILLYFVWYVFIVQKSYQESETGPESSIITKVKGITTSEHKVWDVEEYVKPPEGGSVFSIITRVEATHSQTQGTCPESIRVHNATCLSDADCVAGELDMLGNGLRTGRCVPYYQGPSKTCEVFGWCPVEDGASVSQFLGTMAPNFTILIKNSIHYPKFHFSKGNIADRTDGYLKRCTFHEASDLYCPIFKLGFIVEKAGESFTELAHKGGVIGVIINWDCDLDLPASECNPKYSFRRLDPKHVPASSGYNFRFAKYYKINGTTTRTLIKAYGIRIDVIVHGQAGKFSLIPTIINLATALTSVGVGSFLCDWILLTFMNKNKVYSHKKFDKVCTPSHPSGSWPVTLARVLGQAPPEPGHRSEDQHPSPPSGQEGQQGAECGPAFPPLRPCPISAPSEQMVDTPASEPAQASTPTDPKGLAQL
# From the text: as §1, §2, §3, §4, §5, §6, §7, §8, §9
SMILES,IC50 [1],IC50 [2]
CCC(CC)n1ncc2nc(N3CCN(C(C)=O)CC3)nc(NC(C)c3ccc4oc(C)cc4c3)c21 (stereo not drawn) [Example 46],1 to 100 nM,100 to 1000 nM
NC(=O)N1CCN(c2nc(N[C@@H](c3cnc4ccccc4c3)C3CC3)c3c(cnn3C3CCOCC3)n2)CC1 [Example 72],1 to 100 nM,1000 to 10000 nM
CC[C@H](C)n1ncc2nc(N3CCN(C(N)=O)CC3)nc(NC(c3cnc4ccccc4n3)C3CC3)c21 (stereo partly drawn) [Example 83],1 to 100 nM,1000 to 10000 nM
CCC(C)n1cc2nc(N3CCN(C(C)=O)CC3)nc(NC(C)c3cnc4ccccc4c3)c2n1 (stereo not drawn) [Example 4],1 to 100 nM,> 10000 nM
CCC(C)n1ncc2nc(N3CCC(C(N)=O)CC3)nc(N[C@@H](c3cnc4ccccc4c3)C3CC3)c21 (stereo partly drawn) [Example 75],1 to 100 nM,1000 to 10000 nM
CC[C@H](C)n1ncc2nc(N3CCN(C(N)=O)CC3)nc(N[C@@H](c3cnc4ccccc4c3)C3CC3)c21 [Example 69],1 to 100 nM,1 to 100 nM
CC(=O)N1CCN(c2nc(N[C@H](C)c3cnc4ccccc4c3)c3nn(CC(C)C)cc3n2)CC1 [Example 7],100 to 1000 nM,> 10000 nM
CC(C)n1ncc2nc(N3CCN(C)C(=O)C3)nc(N[C@H](C)c3cnc4ccccc4c3)c21 [Example 15],1 to 100 nM,1000 to 10000 nM
CCC(CC)n1ncc2nc(N3CCN(C(C)=O)CC3)nc(NC(C)c3cnc4ccc(F)cc4c3)c21 (stereo not drawn) [Example 42],1 to 100 nM,100 to 1000 nM
CCC(CC)n1ncc2nc(N3CCN(C(C)=O)CC3)nc(NC(C)c3ccc(OC(C)C)cc3)c21 (stereo not drawn) [Example 47],1 to 100 nM,1000 to 10000 nM
CC(=O)N1CCN(c2nc(N[C@H](C)c3cnc4ccccc4c3)c3c(cnn3C3CCCC3)n2)CC1 [Example 25],1 to 100 nM,1000 to 10000 nM
CC(=O)N1CCN(c2nc(NC(C)(C)Cc3ccc(Cl)cc3)c3nn(C(C)C)cc3n2)CC1 [Example 3],100 to 1000 nM,1000 to 10000 nM
CC(C)n1ncc2nc(N3CCN(C)C(=O)C3)nc(N[C@@H](c3cnc4ccccc4c3)C3CC3)c21 [Example 59],1 to 100 nM,100 to 1000 nM
CC[C@@H](C)n1ncc2nc(N3CCN(C(N)=O)CC3)nc(N[C@@H](c3cnc4ccccc4c3)C3CC3)c21 [Example 70],1 to 100 nM,1 to 100 nM
CCC(CC)n1ncc2nc(N3CCN(C(C)=O)CC3)nc(N[C@H](C)c3ccc4ccccc4c3)c21 [Example 40],1 to 100 nM,100 to 1000 nM
CCC(CC)n1ncc2nc(N3CCN(C(C)=O)CC3)nc(NC(C)c3ccc4occc4c3)c21 (stereo not drawn) [Example 39],100 to 1000 nM,1000 to 10000 nM
CCOc1ccc(C(C)Nc2nc(N3CCN(C(C)=O)CC3)nc3cnn(C(CC)CC)c23)cc1 (stereo not drawn) [Example 30],1 to 100 nM,1000 to 10000 nM
CC(=O)N1CCN(c2nc(N[C@H](C)c3cnc4ccccc4c3)c3c(cnn3CC(C)C)n2)CC1 [Example 16],1 to 100 nM,1000 to 10000 nM
CCC(CC)n1ncc2nc(N3CCN(C(C)=O)CC3)nc(NCC3(c4ccc(Cl)cc4)CCC3)c21 [Example 29],1 to 100 nM,1000 to 10000 nM
CCC(CC)n1ncc2nc(N3CCN(C(C)=O)CC3)nc(NC(c3cnc4ccc(F)cc4c3)C3CC3)c21 (stereo not drawn) [Example 65],1 to 100 nM,100 to 1000 nM

# Other lines, results leading:
IC50 [1],IC50 [2],SMILES
1 to 100 nM,1000 to 10000 nM,Cn1cc(-c2nc(N[C@@H](c3cnc4ccccc4c3)C3CC3)c3c(cnn3C3CCOCC3)n2)cn1 [Example 117]
1 to 100 nM,1000 to 10000 nM,"CCC(C)n1ncc2nc(C(=O)NC3CC3)nc(N[C@@H](c3cnc4ccccc4c3)C3CC3)c21 (stereo partly drawn) [Example 124, 1-sec-Butyl-7-[((R)-cyclopropyl-quinolin-3-yl-methyl)-amino]-1H-pyrazolo[4,3-d]pyrimidine-5-carboxylic Acid Cyclopropylamide]"
1 to 100 nM,1000 to 10000 nM,"CCC(C)n1ncc2nc(-c3cccnn3)nc(N[C@@H](c3cnc4ccccc4c3)C3CC3)c21 (stereo partly drawn) [Example 127, (1-sec-Butyl-5-pyridazin-3-yl-1H-pyrazolo[4,3-d]pyrimidin-7-yl)-((R)-cyclopropyl-quinolin-3-yl-methyl)-amine]"
1 to 100 nM,1000 to 10000 nM,CC(=O)N1CCN(c2nc(N[C@H](C)c3cnc4ccccc4c3)c3nn(C(C)C)c(Br)c3n2)CC1 [Example 98]
1 to 100 nM,1000 to 10000 nM,"CCC(C)n1nc(Br)c2nc(N3CCN(C(C)=O)CC3)nc(N[C@H](C)c3cnc4ccccc4c3)c21 (stereo partly drawn) [Example 90, 1-{4-[3-Bromo-1-sec-butyl-7-((R)-1-quinolin-3-yl-ethylamino)-1H-pyrazolo[4,3-d]pyrimidin-5-yl]-piperazin-1-yl}-ethanone]"
1 to 100 nM,> 10000 nM,CC(=O)N1CCN(c2nc(NC(C)c3cnc4ccccc4c3)c3nn(C(C)C)c(C)c3n2)CC1 (stereo not drawn) [Example 96]
1 to 100 nM,1 to 100 nM,CCC(C)n1ncc2nc(-c3cnn(C)c3)nc(N[C@@H](c3cnc4ccccc4c3)C3CC3)c21 (stereo partly drawn) [Example 114]
1 to 100 nM,1000 to 10000 nM,CC(=O)N1CCN(c2nc(N[C@H](C)c3cnc4ccccc4c3)c3c(n2)c(Br)nn3C(C)C)CC1 [Example 100]
1 to 100 nM,100 to 1000 nM,CCC(C)n1ncc2nc(N3CCN(C(N)=O)CC3)nc(N[C@H](C)c3cnc4ccccc4c3)c21 (stereo partly drawn) [Example 85]
1 to 100 nM,1000 to 10000 nM,"CCC(C)n1nc(C#N)c2nc(N3CCN(C(C)=O)CC3)nc(N[C@H](C)c3cnc4ccccc4c3)c21 (stereo partly drawn) [Example 91, 5-(4-Acetyl-piperazin-1-yl)-1-sec-butyl-7-((R)-1-quinolin-3-yl-ethylamino)-1H-pyrazolo[4,3-d]pyrimidine-3-carbonitrile]"
1 to 100 nM,1 to 100 nM,"CCC(C)n1ncc2nc(N3CCN(C(=N)N)CC3)nc(N[C@@H](c3cnc4ccccc4c3)C3CC3)c21 (stereo partly drawn) [Example 112, 4-{1-sec-Butyl-7-[((R)-cyclopropyl-quinolin-3-yl-methyl)-amino]-1H-pyrazolo[4,3-d]pyrimidin-5-yl}-piperazine-1-carboxamidine]"
1 to 100 nM,100 to 1000 nM,CC[C@H](C)n1ncc2nc(-c3cnn(CCF)c3)nc(NC(CO)c3cnc4ccccc4c3)c21 (stereo partly drawn) [Example 122]
1 to 100 nM,1000 to 10000 nM,CCC(C)n1ncc2nc(C3CCN(C(N)=O)CC3)nc(N[C@@H](c3cnc4ccccc4c3)C3CC3)c21 (stereo partly drawn) [Example 118]
